Test results taken from patent US20060241296A1, “Vanilloid receptor ligands and their use in treatments” (priority 2005, published 2006).

| SMILES | melting point [°C] |
| --- | --- |
| O[C@@H]1Cc2cccc(Nc3cc(-c4ccc(C(F)(F)F)cc4)ncn3)c2C[C@H]1O (racemic) [Example 28, (±)-5-(6-(4-(Trifluoromethyl)phenyl)pyrimidin-4-ylamino)-1,2,3,4-tetrahydronaphthalene-2,3-trans-diol] | 286 to 289 |
| O[C@@H]1Cc2c(cccc2Nc2cc(-c3ccc(C(F)(F)F)cc3)ncn2)C[C@@H]1O (racemic) [Example 30, (±)-5-(6-(4-(Trifluoromethyl)phenyl)pyrimidin-4-ylamino)-1,2,3,4-tetrahydronaphthalene-2,3-cis-diol] | 231 to 232 |
| Nc1cc(C(F)(F)F)ccc1-c1cc(Nc2cccc3c2C[C@@H](O)[C@@H](O)C3)ncn1 (racemic) [Example 31, (±)-5-(6-(2-Amino-4-(trifluoromethyl)phenyl)pyrimidin-4-ylamino)-1,2,3,4-tetrahydronaphthalene-2,3-cis-diol] | 233 to 234 |
| OC1CCc2cccc(Nc3cc(-c4ccc(C(F)(F)F)cc4)ncn3)c2C1 (centres unmarked) [Example 1, 8-(6-(4-(Trifluoromethyl)phenyl)pyrimidin-4-ylamino)-1,2,3,4-tetrahydro-naphthalen-2-ol] | 178 to 179 |
| OC1CCc2c(Br)ccc(Nc3cc(-c4ccc(C(F)(F)F)cc4)ncn3)c2C1 (centres unmarked) [Example 37, 5-Bromo-8-(6-(4-(trifluoromethyl)phenyl)pyrimidin-4-ylamino)-1,2,3,4-tetrahydronaphthalen-2-ol] | 192 |
